Data on two compounds can be found in ChEMBL document CHEMBL1143994, “New terpenoids from Maytenus apurimacensis as MDR reversal agents in the parasite Leishmania” (2008).

Format in all cases: functional
For assay [1], the system named is Leishmania tropica. In words: Growth inhibition of multidrug resistant Leishmania tropica at 3 uM in presence of 150 uM daunomycin after 72 hrs by MTT assay relative to control.
The subject of assay [2] is Leishmania tropica. The assay can be described thus: Growth inhibition of wild type Leishmania tropica LRC at 1 uM after 72 hrs by MTT assay relative to control. The following applies: read-out: GI. (In general: Formazan colour is commonly taken as a measure of viable cells.)
Assay [3] deals with Leishmania tropica. The assay can be described thus: Growth inhibition of multidrug resistant Leishmania tropica at 1 uM in presence of 150 uM daunomycin after 72 hrs by MTT assay relative to control.
Assay [4] deals with Leishmania tropica. In words: Growth inhibition of wild type Leishmania tropica LRC at 15 uM after 72 hrs by MTT assay relative to control. The following applies: read-out: GI.
In assay [5] the test system is Leishmania tropica. In words: Growth inhibition of multidrug resistant Leishmania tropica at 15 uM in presence of 150 uM daunomycin after 72 hrs by MTT assay relative to control.
The test system of assay [6] is Leishmania tropica. The assay can be described thus: Growth inhibition of wild type Leishmania tropica LRC at 7 uM after 72 hrs by MTT assay relative to control. The following applies: read-out: GI.
Assay [7] relates to Leishmania tropica. The assay can be described thus: Growth inhibition of multidrug resistant Leishmania tropica at 7 uM in presence of 150 uM daunomycin after 72 hrs by MTT assay relative to control.
For assay [8], the system named is Leishmania tropica. The assay can be described thus: Growth inhibition of wild type Leishmania tropica LRC at 3 uM after 72 hrs by MTT assay relative to control. The following applies: read-out: GI.

Take `CC(=O)O[C@@H]1[C@@H]2[C@@H](OC(=O)c3cccnc3)[C@@]3(OC2(C)C)[C@@](C)([C@@H](OC(=O)c2ccccc2)CC[C@@]3(C)O)[C@@H]1OC(=O)c1ccccc1`: the “growth inhibition (GI)” value in the assay on Leishmania tropica [1] is 62.8%; in the assay with Leishmania tropica [3], 15.8%; with Leishmania tropica [5] it was 98.5%; in the assay on Leishmania tropica [7], 90.2%. For the same compound, the inhibition of growth at 1 µM in the assay with Leishmania tropica [2] came out at 0%. Further, in the assay with Leishmania tropica [4], the inhibition of growth at 15 µM turned out to be 13.6%. In addition, in the assay with Leishmania tropica [6], the inhibition of growth at 7 µM is 0%. Also, the inhibition of growth at 3 µM in the assay with Leishmania tropica [8] was found to be 0%.
Consider `CC(=O)O[C@@H]1[C@@H]2[C@@H](OC(=O)c3cccnc3)[C@]3(OC2(C)C)[C@H](C)CC[C@H](OC(=O)c2ccccc2)[C@@]3(C)[C@@H]1OC(=O)c1ccccc1`, for which the “growth inhibition (GI)” value stood at 21.2% in the assay on Leishmania tropica [1], 8.6% with Leishmania tropica [3], 96.1% with Leishmania tropica [5] and 59.2% in the assay with Leishmania tropica [7]. Besides, the inhibition of growth at 1 µM in the assay with Leishmania tropica [2] worked out at 0%. Moreover, the inhibition of growth at 15 µM in the assay with Leishmania tropica [4] is 2.3%. Besides, the inhibition of growth at 7 µM in the assay on Leishmania tropica [6] amounted to 0.8%. The inhibition of growth at 3 µM in the assay with Leishmania tropica [8] came out at 0%.
